System: Acanthamoeba castellanii trophozoites
Assay: CellTiter-Glo 2.0 trophocidal assay, A. castellanii
Format: cell-based
Conditions: for IC50: CTG method, 72 h, duplicate twofold serial dilutions from 10 µM, mean ± SD; for Selectivity Index (A549 IC50/A. castellanii IC50): SI = (IC50 A549)/(IC50 Amoeba); for potency against A. castellanii, in words: dose-response, CTG
Protocol: This isolate was also purchased from ATCC. Trophozoites were routinely grown axenically at 27 °C in Protease Peptone-Glucose Media (PG) in non-vented 75 cm^2 tissue culture flasks (Olympus, El Cajon, CA, USA), until the cells were 80–90% confluent. For sub-culturing, cells were mechanically harvested to detach the cells from the culture flasks. The cells were collected by centrifugation at 4000 rpm at 4 °C.
The trophocidal activity of compounds was assessed using the CellTiter-Glo 2.0 luminescent viability assay (Promega, Madison, WI, USA), as previously described. Trophozoites were routinely cultured as described above and only logarithmic trophozoites were used. […] Initially all compounds were assessed in a single-point drug screen at 10 and 1 μM, as previously described. […] We used this process to reduce the number of potential false positives. Drugs were cherry-picked, dissolved in the media specific to each parasite, and assessed in twofold serial dilutions from the highest concentration of 10 μM. All assays were incubated at each of the parasites’ representative growth temperatures, described above, for 72 h. At the 72 h time point, 25 μL of CellTiter-Glo 2.0 reagent was added to all wells of the 96-well plates using the Biomek NX^P automated workstation. The plates were protected from light and contents were mixed using an orbital shaker at 300 rpm at room temperature for 2 min to induce cell lysis. After shaking, the plates were equilibrated at room temperature for 10 min to stabilize the luminescent signal. The adenosine triphosphate (ATP) luminescent signal (relative light units; RLUs) was measured at 490 nm with a SpectraMax I3X plate reader (Molecular Devices, Sunnyvale, CA, USA). Drug inhibitory concentration (IC50) curves were generated using total ATP RLUs, where controls were calculated as the average of replicates using the Levenberg–Marquardt algorithm, using DMSO as the normalization control, as defined in Collaborative Drug Discovery Inc. (CDD) Vault (Burlingame, CA, USA). Values reported are from a minimum of two biological replicates with standard deviations.

`CN(Cc1ccc(C(C)(C)C)cc1)Cc1cccc2ccccc12` [Butenafine] was tested, and the IC50 was 1.97 ± 1.76 µM, the IC50 (listed as butenafine) was no more than 10 µM and the “Selectivity Index (A549 IC50/A. castellanii IC50)” value (shortened to “Selectivity Index”) was no less than 5.08.

In the case of `CC(=O)Oc1ccccc1C(=O)Nc1ncc([N+](=O)[O-])s1` [Nitazoxanide], the IC50 (Acanthamoeba castellanii) is reported as greater than 10 µM.

With `Cc1[nH]c2ccccc2c1CCNCc1ccc(/C=C/C(=O)NO)cc1` [Panobinostat] the IC50 (Acanthamoeba castellanii) was greater than 10 µM.

In the case of `C[C@@H](c1nc(-c2ccc(C#N)cc2)cs1)[C@](O)(Cn1cncn1)c1ccc(F)cc1F` [Ravuconazole], the IC50 (Acanthamoeba castellanii) is reported as 0.02 ± 0.01 µM, the “Selectivity Index” value is reported as no less than 625 and the “Selectivity Index” value (listed as ravuconazole) is reported as no less than 10. The “potency against A. castellanii, in words” value was “nanomolar potency”.

For `CN(C/C=C/C#CC(C)(C)C)Cc1cccc2ccccc12` [Terbinafine], the IC50 (Acanthamoeba castellanii) was 0.56 ± 0.28 µM, the “Selectivity Index” value was no less than 18 and the “Selectivity Index” value (listed as terbinafine) was no less than 10. For the same compound, the “potency against A. castellanii, in words” value was “nanomolar potency”.
